This is an account of results in US20090247542A1, “SYNTHESES AND PREPARATIONS OF POLYMORPHS OF CRYSTALLINE ARIPIPRAZOLE” (MEDICHEM, S.A., priority 2005, published 2009).

The data set is described as follows: Hygroscopicity measurements (water content by Karl Fisher after humid storage). Type of data set: physicochemical. The note with it: for Hygroscopicity: water content (Karl Fisher) after 24 hours at 60° C./100% RH, then 24 hours at room temperature and about 30% RH. As for the experimental part:
vii. Hygroscopicity Measurements
One gram of the sample was accurately weighed in a weighing bottle (diameter 5 cm), covered with kimwipes and left to rest in 60° C./100% RH environment (water/dessicator). 24 hours later, the weighing bottle was removed, transferred to an environment of room temperature and about 30% RH (magnesium chloride hexahydrate saturated water solution/dessicator) and left to rest for 24 hours and the water content of the sample was measured by the Karl Fisher method.

`O=C1CCc2ccc(OCCCCN3CCN(c4cccc(Cl)c4Cl)CC3)cc2N1` [Example 1, 7-{4-[4-(2,3-dichlorophenyl)-1-piperazinyl]-butoxy}-3,4-dihydrocarbostyril] came in with a Hygroscopicity of 0.06%.
In the case of `O=C1CCc2ccc(OCCCCN3CCN(c4cccc(Cl)c4Cl)CC3)cc2N1` [aripiprazole Form J, 7-{4-[4-(2,3-dichlorophenyl)-1-piperazinyl]-butoxy}-3,4-dihydrocarbostyril], the “low hygroscopicity (moisture content)” value (after storing anhydrous aripiprazole Form J for 24 hours at 60° C. and a humidity level of 100%) is given as at most 0.5%.
Take `O=C1CCc2ccc(OCCCCN3CCN(c4cccc(Cl)c4Cl)CC3)cc2N1` [Reference Example 2, 7-{4-[4-(2,3-dichlorophenyl)-1-piperazinyl]-butoxy}-3,4-dihydrocarbostyril, reference compound]: the Hygroscopicity amounted to 0.35%.
